Laboratory results published in ChEMBL document CHEMBL4813932, “Terpenoid Constituents of Perovskia artemisioides Aerial Parts with Inhibitory Effects on Bacterial Biofilm Growth” (2021).

Experiments:
Assay in all cases: microbe, parasite or virus in culture
Type in all cases: functional
Staphylococcus aureus [1] = settings: ATCC 25923, time 48 hrs
Description: Antibiofilm activity against Staphylococcus aureus ATCC 25923 assessed as inhibition of bacterial metabolism within the biofilm at 8 ug/ml measured after 48 hrs by MTT assay relative to control

Listeria monocytogenes [2] = settings: ATCC 7644, time 48 hrs
Description: Antibiofilm activity against Listeria monocytogenes ATCC 7644 assessed as inhibition of bacterial metabolism within the biofilm at 4 ug/ml measured after 48 hrs by MTT assay relative to control

Listeria monocytogenes [3] = settings: ATCC 7644, time 48 hrs; remark: listed apart in the source
Description: Antibiofilm activity against Listeria monocytogenes ATCC 7644 assessed as inhibition of bacterial metabolism within the biofilm at 8 ug/ml measured after 48 hrs by MTT assay relative to control

Staphylococcus aureus [4] = settings: ATCC 25923, time 48 hrs; remark: listed apart in the source
Description: Antibiofilm activity against Staphylococcus aureus ATCC 25923 assessed as inhibition of biofilm formation at 8 ug/ml measured after 48 hrs by crystal violet staining based assay relative to control

Escherichia coli [5] = settings: DSM 8579, time 48 hrs
Description: Antibiofilm activity against Escherichia coli DSM 8579 assessed as inhibition of biofilm formation at 80 ug/ml measured after 48 hrs by crystal violet staining based assay relative to control

Staphylococcus aureus [6] = settings: ATCC 25923, time 48 hrs; remark: listed apart in the source
Description: Antibiofilm activity against Staphylococcus aureus ATCC 25923 assessed as inhibition of biofilm formation at 4 ug/ml measured after 48 hrs by crystal violet staining based assay relative to control

Pseudomonas aeruginosa [7] = settings: ATCC 50071, time 48 hrs
Description: Antibiofilm activity against Pseudomonas aeruginosa ATCC 50071 assessed as inhibition of biofilm formation at 8 ug/ml measured after 48 hrs by crystal violet staining based assay relative to control

Escherichia coli [8] = settings: DSM 8579, time 48 hrs; remark: listed apart in the source
Description: Antibiofilm activity against Escherichia coli DSM 8579 assessed as inhibition of bacterial metabolism within the biofilm at 40 ug/ml measured after 48 hrs by MTT assay relative to control

Listeria monocytogenes [9] = settings: ATCC 7644, time 48 hrs; remark: listed apart in the source
Description: Antibiofilm activity against Listeria monocytogenes ATCC 7644 assessed as inhibition of biofilm formation at 8 ug/ml measured after 48 hrs by crystal violet staining based assay relative to control

Pseudomonas aeruginosa [10] = settings: ATCC 50071, time 48 hrs; remark: listed apart in the source
Description: Antibiofilm activity against Pseudomonas aeruginosa ATCC 50071 assessed as inhibition of bacterial metabolism within the biofilm at 8 ug/ml measured after 48 hrs by MTT assay relative to control

Listeria monocytogenes [11] = settings: ATCC 7644, time 48 hrs; remark: listed apart in the source
Description: Antibiofilm activity against Listeria monocytogenes ATCC 7644 assessed as inhibition of biofilm formation at 4 ug/ml measured after 48 hrs by crystal violet staining based assay relative to control

Pseudomonas aeruginosa [12] = settings: ATCC 50071, time 48 hrs; remark: listed apart in the source
Description: Antibiofilm activity against Pseudomonas aeruginosa ATCC 50071 assessed as inhibition of bacterial metabolism within the biofilm at 4 ug/ml measured after 48 hrs by MTT assay relative to control

Escherichia coli [13] = settings: DSM 8579, time 48 hrs; remark: listed apart in the source
Description: Antibiofilm activity against Escherichia coli DSM 8579 assessed as inhibition of biofilm formation at 40 ug/ml measured after 48 hrs by crystal violet staining based assay relative to control

Pseudomonas aeruginosa [14] = settings: ATCC 50071, time 48 hrs; remark: listed apart in the source
Description: Antibiofilm activity against Pseudomonas aeruginosa ATCC 50071 assessed as inhibition of biofilm formation at 4 ug/ml measured after 48 hrs by crystal violet staining based assay relative to control

Staphylococcus aureus [15] = settings: ATCC 25923, time 48 hrs; remark: listed apart in the source
Description: Antibiofilm activity against Staphylococcus aureus ATCC 25923 assessed as inhibition of bacterial metabolism within the biofilm at 4 ug/ml measured after 48 hrs by MTT assay relative to control

Escherichia coli [16] = settings: DSM 8579, time 48 hrs; remark: listed apart in the source
Description: Antibiofilm activity against Escherichia coli DSM 8579 assessed as inhibition of bacterial metabolism within the biofilm at 80 ug/ml measured after 48 hrs by MTT assay relative to control

| Structure (SMILES) | inhibition at 8 µg/mL (Staphylococcus aureus [1]) [%] | inhibition at 4 µg/mL (Listeria monocytogenes [2]) [%] | inhibition at 8 µg/mL (Listeria monocytogenes [3]) [%] | inhibition at 8 µg/mL (Staphylococcus aureus [4]) [%] | inhibition at 80 µg/mL (Escherichia coli [5]) [%] | inhibition at 4 µg/mL (Staphylococcus aureus [6]) [%] | inhibition at 8 µg/mL (Pseudomonas aeruginosa [7]) [%] | inhibition at 40 µg/mL (Escherichia coli [8]) [%] | inhibition at 8 µg/mL (Listeria monocytogenes [9]) [%] | inhibition at 8 µg/mL (Pseudomonas aeruginosa [10]) [%] | inhibition at 4 µg/mL (Listeria monocytogenes [11]) [%] | inhibition at 4 µg/mL (Pseudomonas aeruginosa [12]) [%] | inhibition at 40 µg/mL (Escherichia coli [13]) [%] | inhibition at 4 µg/mL (Pseudomonas aeruginosa [14]) [%] | inhibition at 4 µg/mL (Staphylococcus aureus [15]) [%] | inhibition at 80 µg/mL (Escherichia coli [16]) [%] |
| --- | --- | --- | --- | --- | --- | --- | --- | --- | --- | --- | --- | --- | --- | --- | --- | --- |
| CC1(C)C[C@@H](O)C[C@](C)(O)/C1=C\C(=O)O | 49.3 | 13.1 | 33.3 | 31.5 | 50.3 | 12.6 | 55.5 | 14.2 | 10.2 | 35.7 | 0 | 29.2 | 28.6 | 0 | 44.7 | 38.6 |
| COc1c(C(C)C)cc2c(c1O)[C@@]1(C(=O)O)CCCC(C)(C)[C@@H]1CC2 | 0 | 4 | 6.7 | 72 | 66.3 | 31.9 | 81.2 | 67.2 | 81 | 71.6 | 74.1 | 43.2 | 3.2 | 68.6 | 0 | 96.1 |
| CO[C@H]1c2cc(C(C)C)c(O)c(O)c2[C@@]23CCCC(C)(C)[C@@H]2[C@@H]1OC3=O | 22.9 | 0 | 29.8 | 63.3 | 47.4 | 23.5 | 84.7 | 0 | 23.8 | 30.9 | 16.2 | 3.1 | 32.9 | 14.7 | 9.4 | 27.3 |
| CC1(C)C[C@H]2[C@H]1CC[C@]1(C)C[C@]2(O)CC[C@@H]1O | 48.6 | 31.1 | 42.2 | 17.9 | 71.9 | 0 | 53.6 | 38.3 | 25.7 | 24.6 | 8.7 | 0 | 24.3 | 42.4 | 33.3 | 57.8 |
| CC1(C)C[C@H]2[C@H]1CC[C@@]1(C)C[C@@]2(O)CC[C@@H]1O | 0 | 0 | 23.9 | 0 | 23.9 | 0 | 4 | 0 | 38.7 | 4 | 14.8 | 0 | 0 | 0 | 0 | 18.2 |
| CC(C)c1cc2c(c(O)c1O)C1=C(CC2)C(C)(C)CCC1=O [SAGEONE] | 0 | 0 | 0.9 | 0 | 45.5 | 0 | 0 | 6.8 | 0.9 | 0 | 0 | 0 | 13.7 | 0 | 0 | 24.6 |
| C=C(C)[C@@H]1CC[C@]2(C(=O)O)CC[C@]3(C)[C@H](CC[C@@H]4[C@@]5(C)CC[C@H](O)C(C)(C)[C@@H]5CC[C@]43C)[C@@H]12 [BETULINIC ACID] | 14 | 12.7 | 18.7 | 75.2 | 54.4 | 30.7 | 63.4 | 15 | 80.4 | 72.2 | 75.6 | 31.9 | 33.4 | 38 | 0 | 22.6 |
| COc1cc2oc(-c3ccc(O)cc3)cc(=O)c2c(O)c1OC [CIRSIMARITIN] | 52.6 | 26.9 | 39 | 6.6 | 65.3 | 0 | 83.7 | 44.2 | 65.2 | 40.2 | 54 | 0 | 37.7 | 47.9 | 0 | 50 |
| CC1(C)C[C@H](O)[C@]23CC[C@@H](O)[C@](C)(CC[C@@H]12)C3 | 0 | 8.7 | 17.8 | 0 | 45.4 | 0 | 40 | 1.6 | 17.8 | 40 | 8.7 | 39.8 | 3.2 | 39.8 | 0 | 37.5 |
| COc1c(C(C)C)cc2c(c1O)[C@]1(C(=O)O)CCCC(C)(C)[C@@H]1CC2 (relative stereo) | 8 | 6.5 | 17.8 | 8 | 92.8 | 0 | 46.8 | 46.3 | 17.8 | 46.8 | 6.5 | 27.2 | 92.6 | 27.2 | 0 | 89.1 |
| C=CC(C)(O)C/C=C/C(C)(C)O (centres undefined) | 44.4 | 9.1 | 38.1 | 40.7 | 78.6 | 13.3 | 84.7 | 52 | 85 | 71.3 | 78 | 68.1 | 30.4 | 75.9 | 42.2 | 64 |
| C=C1CC/C=C(/C)[C@H](O)C[C@@H]2[C@@H]1CC2(C)CO (some centres undefined) | 31.1 | 22.4 | 36.8 | 34.9 | 43.1 | 0 | 34.3 | 13.9 | 51.1 | 43.1 | 13.7 | 27.4 | 27.4 | 18.2 | 27.7 | 45.4 |
| CC(C)c1cc2c(cc1O)[C@@]1(C)CCCC(C)(C)[C@@H]1CC2 [FERRUGINOL] | 27.9 | 0 | 14.2 | 44.6 | 37.5 | 38.5 | 53.2 | 9.1 | 60.9 | 45.2 | 35.6 | 20.3 | 19.2 | 52.2 | 0 | 24.7 |
| CC(=O)O[C@H]1CC(C)(C)[C@@H]2CC[C@]3(C)C[C@]12CC[C@H]3O | 4.7 | 20.6 | 29.4 | 16.4 | 29.6 | 3.2 | 45.9 | 0 | 23.3 | 45.9 | 14.6 | 30.4 | 0 | 15.2 | 0 | 42 |
